Like-named read-outs stand apart in the source and are kept apart here.
Columns and labels:
[1] = tested on: Human prostate PC3 tumor cells; assay: aFGF/bFGF-induced resistance and reversal by suramin, sulforhodamine B assay; format: cell-based; settings: for Resistance, Folds, aFGF 0.3 ng/ml + bFGF 1 ng/ml / Resistance, Folds, aFGF 1 ng/ml + bFGF 3 ng/ml: no suramin, relative to control
Description: The experimental conditions are described briefly below. […] Cell number was measured using the sulforhodamine B assay which measures the total protein concentration. […] The FGF-induced resistance was dependent on the FGF concentrations, with a higher resistance at higher FGF concentrations.

[2] = tested on: rat lung metastases, histocultures; assay: Drug effect in histocultures of rat lung metastases (inhibition of 3H-thymidine incorporation); format: cell-based; settings: Histocultures, Lung, 96 hours, read-out: Concentration producing 50% inhibition
[3] = tested on: Human prostate PC3 tumor cells; assay: Drug treatment and extracellular bFGF (ELISA), LDH release, cell number; format: cell-based; settings: for Extracellular LDH, % of control / Extracellular bFGF, % of control / Extracellular concentration bFGF / bFGF:LDH ratio: 72 hours
Description: The experimental conditions are described briefly below. […] The remaining cell number at the end of treatment was counted using a Coulter counter. The extracellular bFGF concentration was measured using ELISA. The release of lactate dehydrogenase (LDH) into the extracellular culture medium is indicative of cell death and gives a measure of the release of cellular content into the culture medium. If the increase in extracellular bFGF level is due to the release of bFGF upon cell death and lysis, the increase in bFGF will be accompanied by an increase in LDH in the same extent. This would result in an higher bFGF level and a constant bFGF-to-LDH ratio. On the other hand, an increase in extracellular bFGF due to an increase in bFGF production and release of bFGF from cells by processes other than cell lysis will result in an higher bFGF level and an higher bFGF-to-LDH ratio.

[4] = tested on: human prostate PC3-LN tumor cells; assay: cells; format: cell-based; settings: read-out: IC50 in the monolayer cultures of PC3-LN cells
[5] = tested on: rat lymph node metastases, histocultures; assay: Drug effect in histocultures of rat lymph node metastases (inhibition of 3H-thymidine incorporation); format: cell-based; settings: Histocultures, Lymph node, 96 hours, read-out: Concentration producing 50% inhibition
[6] = tested on: normal rat intestinal epithelial cells (IEC6); assay: Protection of normal intestinal epithelial cells by aFGF/bFGF, BrdU incorporation; format: cell-based; settings: drug 24 hours
Description: These cells were derived from normal, noncancerous intestinal epithelium. […] Drug effect was measured as the reduction of bromodeoxyuridine incorporation in treated cells relative to untreated controls.

[7] = tested on: rat MAT-LyLu tumor cells; assay: Reversal of CM-induced resistance by FGF antibodies and suramin, BrdU incorporation; format: cell-based; settings: Rattus norvegicus, read-out: IC50 in the presence of 1.6 micromolar suramin; CM of lung metastases histocultures; unchanged in the absence or presence of 5 microgram/ml anti-bFGF antibody
Description: The source of CM was lung histocultures for the aFGF experiment, and early monolayer lung cultures for the bFGF experiment. The study used four controls: no CM (left solid curves, open circles); addition of 5 μg/ml aFGF or bFGF antibody but no CM (inverted filled triangle, overlaps with the left control curve); addition of CM but no antibody (right solid curves, open square); addition of CM plus a nonspecific antibody, IgG (5 μg/ml, filled diamond, overlaps with the right CM-control curve). Dotted curves, from right to left, addition of aFGF or bFGF antibody concentrations of 0.05 μg/ml (filled circle); 0.1 μg/ml (filled square); 1 or 0.5 μg/ml (filled triangle); and 5 μg/ml (open inverted triangle). […] Similar results were also found for human PC3 prostate tumor cells.
The first study used specific inhibitors of extracellular aFGF and bFGF, i.e., monoclonal antibodies (FIG. 2A). […] In the presence of the active CM, the bFGF antibody produced a concentration-dependent reversal of the CM-induced chemoresistance, with complete reversal by 5 microgram/ml antibody, whereas a nonspecific antibody (i.e., non-immune rabbit IgG) had no effect. For aFGF, the antibody treatment partially reversed the CM-induced resistance; the maximum reversal was about 60% that was obtained with 1 microgram/ml antibody with no significant additional reversal at a 5-fold higher concentration. The second study evaluated the effect of removing aFGF and/or bFGF from the active CM by immunoprecipitation. Removal of bFGF abolished the resistance, whereas removal of aFGF only partially reversed the CM effect. These two studies indicate that both aFGF and bFGF were involved in the resistance, but had different roles.
This study was performed using the rat MAT-LyLu tumor cells as the model tumor cells and using doxorubicin and paclitaxel as the model anticancer agents. The CM used to induce resistance was collected from histocultures of lung metastases (see Table 1). Five microgram/ml anti-bFGF antibody was added.

[8] = tested on: human PC3-LN lung metastases
Description: Animal care was in accordance with the guidelines at the Ohio State University. Several human tumor models were used, including (a) lung metastases derived from intravenous injection of human PC3-LN tumor cells, (b) lung tumors derived from direct injection of human PC3 cells in lungs, and (c) subcutaneously implanted PC3 tumors. Four studies were performed. In all studies, drug treatment was administered intravenously via a tail vein, after the tumor was established. The first and second studies used the intravenous PC3-LN lung metastasis model. Briefly, human PC3-LN cells ([…] in 0.1 ml physiologic saline) were injected intravenously, via a tail vein, into immunodeficient mice. […] Treatment was given twice weekly for three weeks. […] Three days after completion of drug treatments, animals were euthanized and their lungs removed, fixed in Bouin's solution to visualize tumor nodules, and then processed for histologic evaluation. […] The lung surface area (counted as number of pixel) occupied by the tumor was calculated as a fraction of the total lung area, using Adobe PhotoShop. The number of tumor cells in residual tumors and the fraction of apoptotic cells in each tumor were also determined microscopically. Because apoptotic cells disappear over time, a second measure of the extent of apoptosis was the density of non-apoptotic cells in the residual tumors. This was determined by counting the number of non-apoptotic tumor cells in randomly selected microscopic fields at 400× magnification. […] In the case of combination therapy where fewer than 5 tumor nodules remained per animal, all residual cells (between 20 to 600 cells per animal) were counted.

[9] = tested on: human PC3 lung tumors; assay: Lung tumors established by direct injection of PC3 cells into the lungs of immunodeficient mice; format: in vivo; settings: doxorubicin three doses of 10 mg/kg, suramin three doses of 20 mg/kg, day 12
Description: Animal care was in accordance with the guidelines at the Ohio State University. Several human tumor models were used, including (a) lung metastases derived from intravenous injection of human PC3-LN tumor cells, (b) lung tumors derived from direct injection of human PC3 cells in lungs, and (c) subcutaneously implanted PC3 tumors. Four studies were performed. In all studies, drug treatment was administered intravenously via a tail vein, after the tumor was established. The first and second studies used the intravenous PC3-LN lung metastasis model. Briefly, human PC3-LN cells ([…] in 0.1 ml physiologic saline) were injected intravenously, via a tail vein, into immunodeficient mice. […] Treatment was given twice weekly for three weeks. […] The lung surface area (counted as number of pixel) occupied by the tumor was calculated as a fraction of the total lung area, using Adobe PhotoShop. The number of tumor cells in residual tumors and the fraction of apoptotic cells in each tumor were also determined microscopically. […] This was determined by counting the number of non-apoptotic tumor cells in randomly selected microscopic fields at 400× magnification. […] In the case of combination therapy where fewer than 5 tumor nodules remained per animal, all residual cells (between 20 to 600 cells per animal) were counted.

[10] = Homo sapiens, read-out: IC50, Control (drug treatment only, without FGF treatment), No suramin, drug 96 hours
[11] = Homo sapiens, read-out: IC50, aFGF 0.3 ng/ml + bFGF 1 ng/ml, No suramin, FGF pretreatment 96 hours, drug 96 hours
[12] = Homo sapiens, read-out: IC50, aFGF 1 ng/ml + bFGF 3 ng/ml, No suramin, FGF pretreatment 96 hours, drug 96 hours
[13] = read-out: IC50, Control (without FGF treatment), Suramin, 15 μM, drug 96 hours with 15 μM suramin
[14] = read-out: IC50, aFGF 0.3 ng/ml + bFGF 1 ng/ml, With suramin, FGF pretreatment 96 hours, drug 96 hours with 15 micromolar suramin
[15] = read-out: IC50, aFGF 1 ng/ml + bFGF 3 ng/ml, With suramin, FGF pretreatment 96 hours, drug 96 hours with 15 micromolar suramin
[16] = doxorubicin study: suramin 10 mg/kg, doxorubicin 5 mg/kg, intravenous twice weekly for three weeks
[17] = suramin 10 mg/kg, doxorubicin 5 mg/kg, intravenous twice weekly for three weeks

## O=c1[nH]cc(F)c(=O)[nH]1 [5-Fluorouracil]
[1]; [10]
  IC50: 2210 nM
[1]; [11]
  IC50: 5050 nM
[1]; [12]
  IC50: 12600 nM
[1]
  Resistance, Folds, aFGF 0.3 ng/ml + bFGF 1 ng/ml: 2.29 Folds
  Resistance, Folds, aFGF 1 ng/ml + bFGF 3 ng/ml: 5.71 Folds
[1]; [13]
  IC50: 2390 nM
[1]; [14]
  IC50: 2160 nM
[1]; [15]
  IC50: 2140 nM
[2]
  IC50: 122000 ± 25000 nM
[3]; drug concentration 2000 NM
  Remaining cell number at 72 hours (% of control): 88%
  Remaining cell number at 72 hours × 10^6: 2.2 × 10^6
  Extracellular LDH, % of control: 121 % of control
  Extracellular bFGF, % of control: 139 % of control
  Extracellular concentration bFGF: 8.37 pg/mL
  bFGF:LDH ratio: 1.15
[3]; drug concentration 6000 NM
  Remaining cell number at 72 hours (% of control): 56%
  Remaining cell number at 72 hours × 10^6: 1.4 × 10^6
  Extracellular LDH, % of control: 158 % of control
  Extracellular bFGF, % of control: 189 % of control
  Extracellular concentration bFGF: 11.35 pg/mL
  bFGF:LDH ratio: 1.20
[3]; drug concentration 20000 NM
  Remaining cell number at 72 hours (% of control): 24%
  Remaining cell number at 72 hours × 10^6: 0.6 × 10^6
  Extracellular LDH, % of control: 202 % of control
  Extracellular bFGF, % of control: 296 % of control
  Extracellular concentration bFGF: 17.8 pg/mL
  bFGF:LDH ratio: 1.46

## COc1cccc2c1C(=O)c1c(O)c3c(c(O)c1C2=O)C[C@@](O)(C(=O)CO)C[C@@H]3O[C@H]1C[C@H](N)[C@H](O)[C@H](C)O1 [Doxorubicin]
[1]; [10]
  IC50: 27.8 nM
[1]; [11]
  IC50: 145 nM
[1]; [12]
  IC50: 281 nM
[1]
  Resistance, Folds, aFGF 0.3 ng/ml + bFGF 1 ng/ml: 5.23 Folds
  Resistance, Folds, aFGF 1 ng/ml + bFGF 3 ng/ml: 10.11 Folds
[1]; [13]
  IC50: 35.9 nM
[1]; [14]
  IC50: 29.8 nM
[1]; [15]
  IC50: 27.9 nM
[4]
  IC50: 17 nM
[5]
  IC50: 165 ± 66 nM
[6]; IEC-6, absence of aFGF and bFGF
  IC50: 292 nM
[6]; IEC-6, pretreated with 1 ng/ml aFGF and 3 ng/ml bFGF for 96 hours
  IC50: 544 nM
[7]
  IC50: 13 nM
[8]; doxorubicin 5 mg/kg alone
  reduction of tumor size: ~80%
[8]; [16]
  % Apoptotic cells per tumor: 29 ± 16 %
  Density of nonapoptotic cells in residual tumors, cells/field: 77 ± 17 cells/field
[8]; [17]
  % Lung surface area occupied by tumor: 2 ± 1 %
  % Tumor-free animals: 0%
[9]
  tumor-free animals: 25%
[3]; drug concentration 20 NM
  Remaining cell number at 72 hours (% of control): 84%
  Remaining cell number at 72 hours × 10^6: 2.1 × 10^6
  Extracellular LDH, % of control: 119 % of control
  Extracellular bFGF, % of control: 124 % of control
  Extracellular concentration bFGF: 5.87 pg/mL
[3]; drug concentration 60 NM
  Remaining cell number at 72 hours (% of control): 48%
  Remaining cell number at 72 hours × 10^6: 1.2 × 10^6
  Extracellular LDH, % of control: 173 % of control
  Extracellular bFGF, % of control: 239 % of control
  Extracellular concentration bFGF: 11.3 pg/mL
[3]; drug concentration 200 NM
  Remaining cell number at 72 hours (% of control): 16%
  Remaining cell number at 72 hours × 10^6: 0.4 × 10^6
  Extracellular LDH, % of control: 316 % of control
  Extracellular bFGF, % of control: 461 % of control
  Extracellular concentration bFGF: 21.8 pg/mL
